This is an account of results in ChEMBL document CHEMBL3112432, “Synthesis of 5α-cholestan-6-one derivatives and their inhibitory activities of NO production in activated microglia: discovery of a novel neuroinflammation inhibitor” (Bioorg Med Chem Lett, 2014).

The nature of series [1]: Antiinflammatory activity in LPS-stimulated mouse BV2 cells assessed as inhibition of NO production at 40 uM after 24 hrs by Griess method relative to control. It is filed as functional. The note with it: BV-2, 24 h. Background: The Griess reaction detects nitrite, a stable product of nitric oxide.
The nature of series [2]: Cytotoxicity against mouse BV2 cells assessed as cell viability at 40 uM after 24 hrs by MTT assay relative to control. The conditions noted are these: read-out: Activity. It counts as cell-based, BV-2.
Another series concerns BV-2. As to the kind of experiment: Antiinflammatory activity in LPS-stimulated mouse BV2 cells assessed as inhibition of NO production after 24 hrs by Griess method. It counts as functional, cell-based.

The term inhibition denotes the percentage by which the read-out fell short of the control. Turning to `COC(=O)CC[C@@H](C)[C@H]1CC[C@H]2[C@@H]3[C@H](F)C(=O)[C@H]4C[C@@H](F)CC[C@]4(C)[C@H]3CC[C@]12C`, in series [1], the inhibition at 40 µM was 39.1%. The viability at 24 h, 40 µM in series [2] worked out at 92.2%.
On the same counts, the results for `COC(=O)CC[C@@H](C)[C@H]1CC[C@H]2[C@@H]3[C@H](O)C(=O)[C@H]4C[C@H](O)[C@@H](F)C[C@]4(C)[C@H]3CC[C@]12C` are 75.1% and 80.5%.
In the same order, the values of `C[C@H]([C@H](O)CO)[C@H]1CC[C@H]2[C@@H]3[C@H](O)C(=O)[C@H]4C[C@H](O)CC[C@]4(C)[C@H]3CC[C@]12C` are 47.1% and 95.7%.
With `C=C[C@@H](C)[C@H]1CC[C@H]2[C@@H]3CC(=O)[C@H]4C[C@H](O)CC[C@]4(C)[C@H]3CC[C@]12C`, the inhibition at 40 µM in series [1] amounted to 24.5%. Besides, the viability at 24 h, 40 µM in series [2] turned out to be 96.4%.
In the same order, the values of `COC(=O)CC[C@@H](C)[C@H]1CC[C@H]2[C@@H]3[C@H](F)C(=O)[C@H]4C[C@@H]5O[C@@H]5C[C@]4(C)[C@H]3CC[C@]12C` are 32.6% and 97.2%.
Regarding `C[C@H]([C@H](O)CO)[C@H]1CC[C@H]2[C@@H]3CC(=O)[C@H]4C[C@H](O)CC[C@]4(C)[C@H]3CC[C@]12C`, in series [1], the inhibition at 40 µM is 60.4%. Also, in the series with BV-2, the inhibition result was “Dose-dependent effect”. Further, the viability at 24 h, 40 µM in series [2] was determined as 95.9%.
On the same counts, the results for `COC(=O)CC[C@@H](C)[C@H]1CC[C@H]2[C@@H]3[C@H](O)C(=O)[C@H]4C[C@@H](F)CC[C@]4(C)[C@H]3CC[C@]12C` are 64.2%, “Dose-dependent effect” and 92.4%.
For `C[C@H]([C@H](O)CO)[C@H]1CC[C@H]2[C@@H]3[C@H](O)C(=O)[C@H]4C[C@@H](F)CC[C@]4(C)[C@H]3CC[C@]12C`, the inhibition at 40 µM in series [1] turned out to be 91.9%. Moreover, the viability at 24 h, 40 µM in series [2] is 78.6%.
As to `COC(=O)CC[C@@H](C)[C@H]1CC[C@H]2[C@@H]3[C@H](F)C(=O)[C@H]4C[C@H](O)[C@@H](F)C[C@]4(C)[C@H]3CC[C@]12C`, in series [1], the inhibition at 40 µM stood at 70%. Moreover, the inhibition entry in the series with BV-2 was “Dose-dependent effect”. The viability at 24 h, 40 µM in series [2] amounted to 96.2%.
For the molecule `COC(=O)CC[C@@H](C)[C@H]1CC[C@H]2[C@@H]3CC(=O)[C@H]4C[C@@H](Br)CC[C@]4(C)[C@H]3CC[C@]12C`, in series [1], the inhibition at 40 µM came to 41.5%. In addition, in series [2], the viability at 24 h, 40 µM came out at 81.5%.
In the same order, the values of `C=C[C@@H](C)[C@H]1CC[C@H]2[C@@H]3[C@H](F)C(=O)[C@H]4C[C@H](O)CC[C@]4(C)[C@H]3CC[C@]12C` are 44.5% and 76.6%.
On the same counts, the results for `COC(=O)CC[C@@H](C)[C@H]1CC[C@H]2[C@@H]3CC(=O)[C@H]4C[C@H](O)[C@@H](O)C[C@]4(C)[C@H]3CC[C@]12C` are 44.9% and 79.5%.
In the same order, the values of `COC(=O)CC[C@@H](C)[C@H]1CC[C@H]2[C@@H]3CC(=O)[C@H]4CC(=O)CC[C@]4(C)[C@H]3CC[C@]12C` are 48.2% and 78%.
For `COC(=O)CC[C@@H](C)[C@H]1CC[C@H]2[C@@H]3[C@H](F)C(=O)[C@H]4C[C@H](O)[C@H](O)C[C@]4(C)[C@H]3CC[C@]12C`, the inhibition at 40 µM in series [1] was 72.4%. The viability at 24 h, 40 µM in series [2] turned out to be 69.9%.
In the same order, the values of `C[C@H]([C@H](O)CO)[C@H]1CC[C@H]2[C@@H]3[C@H](F)C(=O)[C@H]4C[C@@H](F)CC[C@]4(C)[C@H]3CC[C@]12C` are 35.9% and 81.7%.
On the same counts, the results for `COC(=O)CC[C@@H](C)[C@H]1CC[C@H]2[C@@H]3CC(=O)[C@H]4C[C@H](O)[C@H](O)C[C@]4(C)[C@H]3CC[C@]12C` are 74.1% and 81.1%.
In the case of `C[C@H]([C@H](O)CO)[C@H]1CC[C@H]2[C@@H]3CC(=O)[C@H]4C[C@H](O)[C@H](O)C[C@]4(C)[C@H]3CC[C@]12C`, in series [1], the inhibition at 40 µM is 22.6%. In addition, the viability at 24 h, 40 µM in series [2] amounted to 94%.
On the same counts, the results for `COC(=O)CC[C@@H](C)[C@H]1CC[C@H]2[C@@H]3CC(=O)[C@H]4C[C@@H](Cl)CC[C@]4(C)[C@H]3CC[C@]12C` are 35.9% and 79%.
On the same counts, the results for `C=C[C@@H](C)[C@H]1CC[C@H]2[C@@H]3[C@H](O)C(=O)[C@H]4C[C@@H](O)CC[C@]4(C)[C@H]3CC[C@]12C` are 59.5% and 81.8%.
On the same counts, the results for `COC(=O)CC[C@@H](C)[C@H]1CC[C@H]2[C@@H]3CC(=O)[C@H]4C[C@H](O)[C@@H](Br)C[C@]4(C)[C@H]3CC[C@]12C` are 42.7% and 91.4%.
In the case of `COC(=O)CC[C@@H](C)[C@H]1CC[C@H]2[C@@H]3[C@H](O)C(=O)[C@H]4C[C@@H](O)CC[C@]4(C)[C@H]3CC[C@]12C`, the inhibition at 40 µM in series [1] is 71.1%. Also, the inhibition result in the series on BV-2 is “Dose-dependent effect”. The viability at 24 h, 40 µM in series [2] worked out at 96.3%.
As for `COC(=O)CC[C@@H](C)[C@H]1CC[C@H]2[C@@H]3CC(=O)[C@H]4C[C@@H](F)CC[C@]4(C)[C@H]3CC[C@]12C`, the inhibition at 40 µM in series [1] amounted to 43.5%. Also, the viability at 24 h, 40 µM in series [2] worked out at 84.1%.
For the molecule `C=C[C@@H](C)[C@H]1CC[C@H]2[C@@H]3CC(=O)[C@H]4C[C@H](O)[C@H](O)C[C@]4(C)[C@H]3CC[C@]12C`, the inhibition at 40 µM in series [1] was found to be 65.7%. The viability at 24 h, 40 µM in series [2] worked out at 48.2%.
For `COC(=O)CC[C@@H](C)[C@H]1CC[C@H]2[C@@H]3[C@H](F)C(=O)[C@H]4C[C@@H](O)CC[C@]4(C)[C@H]3CC[C@]12C`, the inhibition at 40 µM in series [1] is 43.9%. Besides, the viability at 24 h, 40 µM in series [2] amounted to 23.1%.
In the same order, the values of `COC(=O)CC[C@@H](C)[C@H]1CC[C@H]2[C@@H]3CC(=O)[C@H]4C[C@@H]5O[C@@H]5C[C@]4(C)[C@H]3CC[C@]12C` are 48.6% and 99.5%.
In the same order, the values of `C=C[C@@H](C)[C@H]1CC[C@H]2[C@@H]3[C@H](O)C(=O)[C@H]4C[C@@H](F)CC[C@]4(C)[C@H]3CC[C@]12C` are 43.2% and 87%.
On the same counts, the results for `COC(=O)CC[C@@H](C)[C@H]1CC[C@H]2[C@@H]3CC(=O)[C@H]4C[C@H](O)CC[C@]4(C)[C@H]3CC[C@]12C` are 39.4% and 87.7%.
For the molecule `COC(=O)CC[C@@H](C)[C@H]1CC[C@H]2[C@@H]3[C@H](F)C(=O)[C@H]4C[C@H](O)[C@@H](O)C[C@]4(C)[C@H]3CC[C@]12C`, the inhibition at 40 µM in series [1] was found to be 68.1%. For the same molecule, the viability at 24 h, 40 µM in series [2] was 50.8%.
On the same counts, the results for `C=C[C@@H](C)[C@H]1CC[C@H]2[C@@H]3[C@H](F)C(=O)[C@H]4C[C@H](O)[C@@H](F)C[C@]4(C)[C@H]3CC[C@]12C` are 63.8% and 86.8%.
As for `C[C@H]([C@H](O)CO)[C@H]1CC[C@H]2[C@@H]3[C@H](F)C(=O)[C@H]4C[C@H](O)CC[C@]4(C)[C@H]3CC[C@]12C`, in series [1], the inhibition at 40 µM worked out at 68.1%. Besides, the inhibition entry in the series with BV-2 was “Dose-dependent effect”. In addition, in series [2], the viability at 24 h, 40 µM turned out to be 95.1%.
For the molecule `COC(=O)CC[C@@H](C)[C@H]1CC[C@H]2[C@@H]3CC(=O)[C@H]4C[C@H](O)[C@@H](F)C[C@]4(C)[C@H]3CC[C@]12C`, in series [1], the inhibition at 40 µM is 46.1%. Also, the viability at 24 h, 40 µM in series [2] is 95.8%.
On the same counts, the results for `COC(=O)CC[C@@H](C)[C@H]1CC[C@H]2[C@@H]3[C@H](F)C(=O)[C@H]4C[C@H](O)CC[C@]4(C)[C@H]3CC[C@]12C` are 47.2% and 73.7%.
In the same order, the values of `C[C@]12CC[C@H](O)CC1=CC[C@@H]1[C@@H]2CC[C@]2(C)C(=O)CC[C@@H]12` [PRASTERONE] are 55.3% and 99.1%.
In the same order, the values of `C=C[C@@H](C)[C@H]1CC[C@H]2[C@@H]3[C@H](O)C(=O)[C@H]4C[C@H](O)CC[C@]4(C)[C@H]3CC[C@]12C` are 69.6% and 76.6%.
Consider `COC(=O)CC[C@@H](C)[C@H]1CC[C@H]2[C@@H]3CC(=O)[C@H]4C[C@@H](O)CC[C@]4(C)[C@H]3CC[C@]12C`, for which, in series [1], the inhibition at 40 µM was found to be 18.1%. Further, the viability at 24 h, 40 µM in series [2] came to 27.8%.
In the same order, the values of `C=C[C@@H](C)[C@H]1CC[C@H]2[C@@H]3[C@H](O)C(=O)[C@H]4C[C@H](O)[C@@H](F)C[C@]4(C)[C@H]3CC[C@]12C` are 92.7% and 55.9%.
